Common to all, as to test: NCI-60 cell line screen, 48 h
Assay [1] has as its system BT-549.
Assay [2] has as its system UACC-257.
Assay [3] has as its system HCT-116.
Assay [4] deals with MDA-MB-435.
In assay [5] the test system is A549.
The subject of assay [6] is T47D.
Assay [7] relates to SK-MEL-5.
The test system of assay [8] is KM12.
Assay [9] deals with HOP-62.
In assay [10] the test system is MCF7.
For assay [11], the system named is MDA-MB-231.
The subject of assay [12] is NCI-H23.
Assay [13] deals with HOP-92.
In assay [14] the test system is SF-295.
Assay [15] relates to CCRF-CEM.
Assay [16] relates to SN12C.
The subject of assay [17] is A498.
The subject of assay [18] is SNB-75.
The test system of assay [19] is RXF 393.
Assay [20] has as its system MDA-N.

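How tested: cells in 96-well plates exposed to compound for 48 hours at five concentrations. At the GI50, growth is halved.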 Activity calls are given as the source filed them. Rule as the data show it: active = GI50 up to about 1.1 µM and inactive = higher.

Regarding `N#Cc1nnc2ccccc2c1N`, the GI50 in [1], in assay [2], in [3], in [4], in assay [5] and in assay [6] was > 100 µM (inactive) throughout. Besides, the GI50 in assay [7], in assay [8], in assay [9], in assay [10], in assay [11] and in [12] was > 100 µM (inactive) throughout. The GI50 in assay [13] was > 100 µM (inactive).

Turning to `CC(=O)OCC1OC(c2nnc(C)o2)=CC(OC(C)=O)C1OC(C)=O` (stereo not given), the GI50 in [1], in assay [2], in assay [14], in [3], in [4] and in assay [5] was > 100 µM (inactive) in each case. For the same compound, the GI50 in [15], in assay [7], in assay [8], in assay [9], in assay [10] and in assay [16] was > 100 µM (inactive) in each case. Moreover, the GI50 in assay [17], in [18], in assay [11], in assay [12], in assay [19] and in assay [20] was > 100 µM (inactive) each time.

Regarding `COc1ccc2nc3ccccc3c(NCCCCN(C)CCCl)c2c1`, the GI50 in assay [1] was < 0.01 µM (active); in assay [2], 0.581 µM (active); in [14], 0.0652 µM (active); in assay [3], 0.0199 µM (active); in [4], 0.0783 µM (active); in assay [5] it was 0.0286 µM (active). Moreover, the GI50 in assay [15] was 0.013 µM (active); in assay [7] it was 0.0773 µM (active); in assay [8], 0.0407 µM (active); in assay [9] it was 0.082 µM (active); in assay [10], < 0.01 µM (active); in assay [16], 0.0184 µM (active). Moreover, the GI50 in assay [17] was 0.0435 µM (active); in assay [18], 0.122 µM (active); in assay [11], 0.144 µM (active); in assay [12], 0.0513 µM (active); in [19] it was 0.0914 µM (active); in assay [13] it was 0.0604 µM (active).

With `O=C1CC2c3ccccc3CCC2c2ccccc21` (stereo not given), the GI50 is 26.2 µM (inactive) in [2]; 17.6 µM (inactive) in assay [14]; 11.1 µM (inactive) in [3]; 19.3 µM (inactive) in assay [4]; 27.5 µM (inactive) in assay [5]; 42.9 µM (inactive) in [6]. The GI50 in [7] is 11.6 µM (inactive); in assay [8] it was 9.35 µM (inactive); in assay [9] it was 25.9 µM (inactive); in assay [10], 24 µM (inactive); in [17], 1 µM (active); in assay [18], 38.2 µM (inactive). Further, the GI50 in assay [11] is 20.5 µM (inactive); in [12], 20.2 µM (inactive); in assay [20], 6.64 µM (inactive).

Consider `COc1ccc(/C=C2\S/C(=N/Nc3nc(-c4ccccc4)cs3)NC2=O)cc1OC`, for which the GI50 in assay [1] was 24.5 µM (inactive); in assay [2] it was 33.3 µM (inactive); in [14], 25.3 µM (inactive); in assay [3], 17.1 µM (inactive); in assay [4] it was 25.7 µM (inactive); in [5] it was 20.9 µM (inactive). Moreover, the GI50 in assay [15] was 4.1 µM (inactive); in assay [7], 15.5 µM (inactive); in assay [8], 24.5 µM (inactive); in [9] it was 22.1 µM (inactive); in [10] it was 19.2 µM (inactive); in assay [16], 17.8 µM (inactive). For the same compound, the GI50 in assay [18] was 22.8 µM (inactive); in assay [11], 21.9 µM (inactive); in assay [12], 19.1 µM (inactive); in [19], 4.5 µM (inactive); in assay [20] it was 15.4 µM (inactive); in assay [13] it was 12.6 µM (inactive).

For the compound `CC(C)(C)N/C(N)=N/C#N`, the GI50 in assay [1], in assay [2], in assay [3], in [4], in assay [5] and in [15] was > 100 µM (inactive) each time. In addition, the GI50 in [7], in assay [9], in assay [10], in [16], in assay [18] and in [11] was > 100 µM (inactive) throughout. For the same compound, the GI50 in assay [12], in [19], in [20] and in [13] was > 100 µM (inactive) each time.

As for `O=C(CNc1c(Cl)cccc1Cl)NC1C=Cc2ccc(S(=O)(=O)Nc3c(Cl)cccc3Cl)cc2C1=O` (stereo not given), the GI50 in assay [1] is 60.7 µM (inactive); in assay [2], > 100 µM (inactive); in assay [14], 70.8 µM (inactive); in [3], > 100 µM (inactive); in [4], > 100 µM (inactive); in [5], > 100 µM (inactive). The GI50 is 53.2 µM (inactive) in assay [15]; 35.9 µM (inactive) in assay [8]; 41.4 µM (inactive) in assay [9]; > 100 µM (inactive) in [10]; > 100 µM (inactive) in [16]; 16.7 µM (inactive) in assay [18]. The GI50 in [11] is 51.3 µM (inactive); in [12] it was > 100 µM (inactive); in [20], > 100 µM (inactive); in [13], 18.5 µM (inactive).

Turning to `NC(=S)NNC(=S)NC(=O)c1ccco1`, the GI50 in assay [2], in assay [3], in [4], in assay [5], in assay [6] and in assay [15] was > 10 µM (inactive) in each case. Besides, the GI50 in [7], in assay [8], in [9], in [16], in assay [18] and in [11] was > 10 µM (inactive) in each case. For the same compound, the GI50 in [12], in assay [19], in assay [20] and in [13] was > 10 µM (inactive) in each case.

As to `CN(C)CCOC1(Cc2ccc(Cl)cc2Cl)CCC(C(C)(C)C)CC1` (stereo not given), the GI50 was 1.63 µM (inactive) in assay [1]; 2.04 µM (inactive) in [2]; 1.65 µM (inactive) in assay [14]; 1.6 µM (inactive) in assay [3]; 1.54 µM (inactive) in assay [4]; 3.18 µM (inactive) in assay [5]. The GI50 in assay [15] was 1.86 µM (inactive); in assay [7], 1.56 µM (inactive); in [8], 1.77 µM (inactive); in assay [9], 1.74 µM (inactive); in assay [10] it was 2.01 µM (inactive); in assay [16], 1.65 µM (inactive). The GI50 was 2.88 µM (inactive) in assay [17]; 1.67 µM (inactive) in assay [18]; 7 µM (inactive) in assay [11]; 2.5 µM (inactive) in assay [12]; 1.81 µM (inactive) in assay [20].

In the case of `N#C/C(C(=S)NCc1ccccc1)=C(/N)N1CCCC1`, the GI50 in assay [2] is > 100 µM (inactive); in [14] it was > 100 µM (inactive); in assay [3] it was > 100 µM (inactive); in assay [4], > 100 µM (inactive); in [5], > 100 µM (inactive); in assay [6] it was 25.1 µM (inactive). Besides, the GI50 in [15] was > 100 µM (inactive); in assay [7] it was > 100 µM (inactive); in assay [8], > 100 µM (inactive); in assay [9], > 100 µM (inactive); in [16] it was > 100 µM (inactive); in assay [17], 35.3 µM (inactive). Also, the GI50 in [11] is > 100 µM (inactive); in [12], > 100 µM (inactive); in [19], 74.3 µM (inactive); in assay [20], > 100 µM (inactive); in assay [13], 44.9 µM (inactive).

For `O=C(O)CCC1C(=O)C2CCN1CC2` (stereo not given), the GI50 in assay [2], in assay [14], in assay [3], in assay [4], in [5] and in assay [6] was > 100 µM (inactive) throughout. The GI50 in assay [15], in assay [7], in assay [8], in [9], in assay [10] and in assay [16] was > 100 µM (inactive) each time. Further, the GI50 is 97.7 µM (inactive) in assay [17]; > 100 µM (inactive) in assay [18]; > 100 µM (inactive) in assay [11]; > 100 µM (inactive) in assay [12]; > 100 µM (inactive) in assay [19]; > 100 µM (inactive) in [20].

On to `COc1cccc2c1OC(c1ccc(C#N)cc1)C([N+](=O)[O-])=C2` (stereo not given), for which the GI50 in assay [1] was 1.49 µM (inactive); in [2], 1.38 µM (inactive); in assay [14], 6.14 µM (inactive); in assay [3], 1.48 µM (inactive); in [4] it was 1.39 µM (inactive); in assay [5], 2.56 µM (inactive). The GI50 in [15] was 1.58 µM (inactive); in assay [7] it was 1.53 µM (inactive); in assay [9], 3.21 µM (inactive); in assay [10] it was 1.5 µM (inactive); in assay [16], 2.04 µM (inactive); in [17], 1.84 µM (inactive). In addition, the GI50 in assay [18] was 2.47 µM (inactive); in [11], 1.56 µM (inactive); in [12] it was 1.71 µM (inactive); in assay [19], 1.58 µM (inactive); in assay [20], 1.52 µM (inactive); in assay [13], 1.62 µM (inactive).

The values above are taken from ChEMBL document CHEMBL1201862, “PubChem BioAssay data set” (2004).
